Assay type in all cases: functional
For test [1], the system named is Saimiri. The test can be described thus: Antipsychotic activity in squirrel monkey assessed as inhibition of conditioned avoidance response measured as maximum number of shocks possible per 30 mins interval at 1 mg/kg, po administered followed by saline 15 mins later measured after 1.5 to 2 hrs of dosing.
Test [2] relates to Saimiri. The test is described as follows: Antipsychotic activity in squirrel monkey assessed as inhibition of conditioned avoidance response measured as maximum number of shocks possible per 30 mins interval at 1 mg/kg, po administered followed by saline 15 mins later measured after 1 to 1.5 hrs of dosing.
Test [3] relates to Saimiri. The test is described as follows: Antipsychotic activity in squirrel monkey assessed as inhibition of conditioned avoidance response measured as maximum number of shocks possible per 30 mins interval at 1 mg/kg, po administered followed by saline 15 mins later measured after 0.5 to 1 hrs of dosing.
Test [4] relates to Saimiri. The test is described as follows: Antipsychotic activity in squirrel monkey assessed as inhibition of conditioned avoidance response measured as maximum number of shocks possible per 30 mins interval at 1 mg/kg, po administered followed by saline 15 mins later measured after 0 to 0.5 hrs of dosing.
Test [5] deals with Saimiri. The test can be described thus: Antipsychotic activity in squirrel monkey assessed as inhibition of conditioned avoidance response measured as maximum number of shocks possible per 30 mins interval at 1 mg/kg, po administered followed by saline 15 mins later measured after 2 to 2.5 hrs of dosing.
Test [6] concerns Saimiri. The test is described as follows: Antipsychotic activity in squirrel monkey assessed as inhibition of conditioned avoidance response measured as maximum number of shocks possible per 30 mins interval at 1 mg/kg, po administered followed by saline 15 mins later measured after 2.5 to 3 hrs of dosing.
Test [7] has as its system Saimiri. The test is described as follows: Antipsychotic activity in squirrel monkey assessed as inhibition of conditioned avoidance response measured as maximum number of shocks possible per 30 mins interval at 1 mg/kg, po administered followed by saline 15 mins later measured after 3 to 3.5 hrs of dosing.
For test [8], the system named is Saimiri. The test can be described thus: Antipsychotic activity in squirrel monkey assessed as inhibition of conditioned avoidance response measured as maximum number of shocks possible per 30 mins interval at 1 mg/kg, po administered followed by saline 15 mins later measured after 3.5 to 4 hrs of dosing.
In test [9] the test system is Saimiri. The test is described as follows: Antipsychotic activity in squirrel monkey assessed as inhibition of conditioned avoidance response measured as maximum number of shocks possible per 30 mins interval at 1 mg/kg, po administered followed by saline 15 mins later measured after 4 to 4.5 hrs of dosing.
Test [10] concerns Saimiri. The test can be described thus: Antipsychotic activity in po dosed squirrel monkey assessed as inhibition of conditioned avoidance response measured as maximum number of shocks.
Another test concerns Rattus norvegicus. The test can be described thus: Blockade of po dosed apomorphine-induced stereotyped behavior in Sprague-Dawley rat assessed as continuous sniffing, licking, gnawing, or biting.
The mark [11] stands for this setting: Saimiri, in Primates, po, read-out: ED50.

For orientation: ED50 means the midpoint of the dose-response relation. On to `FC(F)(F)Sc1ccc2c(c1)C(=C1CCN(CC3CC3)CC1)c1ccccc1C=C2.O=P(O)(O)O`, for which the “%max” value in the test with Saimiri [1] was determined as 62%; in the test with Saimiri [2] it was 61.3%; in the test with Saimiri [3], 9.6%; with Saimiri [4] it was 0%; with Saimiri [5], 65%; with Saimiri [6] it was 69%. The “%max” value in the test on Saimiri [7] worked out at 66.7%; in the test with Saimiri [8] it was 90%; in the test with Saimiri [9], 82%. The median effective dose (ED50) stood at 0.99 mg/kg in the test with Saimiri [10] and 0.51 mg/kg in the test with Saimiri [10] (setting [11]).

On to `O=C(CCCN1CCC(O)(c2ccc(Cl)cc2)CC1)c1ccc(F)cc1` [HALOPERIDOL], for which the ED50 in the test with Saimiri [10] (setting [11]) is 0.29 mg/kg; in the test with Rattus norvegicus, 0.32 mg/kg.

The values are drawn from ChEMBL document CHEMBL3244029, “Synthesis and stereospecific antipsychotic activity of (-)-1-cyclopropylmethyl-4-(3-trifluoromethylthio-5H-dibenzo[a,d]cyclohepten-5-ylidene)piperidine” (J Med Chem, 1977).
